Source: patent publication US5912230A, “Anti-fungal and anti-bacterial histatin-based peptides” (priority 1998, dated 1999)
Where no end group is shown, it is not given here.

How the values were obtained:
[1] = test system: P. gingivalis hemagglutination of erythrocytes; experiment: histatin peptide inhibition of hemagglutination assay; assay type: cell-based, Porphyromonas gingivalis; settings: for Hemagglutination: lowest dose (μM) at which hemagglutination was observed using P. Gingivalis: 2 hours at room temperature, visual examination
Procedure: The P. gingivalis strain of Section C.(1) was also used for the hemagglutination assays. The bacterial growth and culture conditions were also the same as those described in Section C.(1).
A classic assay was utilized to determine the hemagglutination potential of the P. gingivalis strain. Microorganisms were inoculated into BFB broth and cultured overnight, for approximately 24 hours at 37° C. under strictly anaerobic conditions with continuous agitation on a minishaker (IKA-Labortechnik, Staufen i. Br., Germany). The bacteria were harvested by centrifugatin at 3,000 r.p.m. for 20 min, at 4° C., washed twice in 0.01M phosphate buffered saline (PBS), pH 7.4, and suspended in the same buffer to an optical density of 1.0 at 550 nm. […] One ml of blood was drawn each time, washed twice in PBS at 1,000 r.p.m. for 10 min at 4° C. and suspended in the same buffer at a 2% (v/v) final concentration. Fifty μl of the bacterial suspension were serially diluted in PBS (two-fold steps) in a 96-well U-bottom microplate (Costar, Cambridge, Mass.). Fifty μl of the erythrocyte suspension were added to each well. Controls without bacteria or erythrocytes were included. The microplate was slightly shaken and incubated at room temperature for 2 hours. Visible examination on a white background was used to determine hemagglutination. The amount of hemagglutination was rated as none,(-), moderate (+/-), or strong (+). Erythrocytes in control wells with PBS precipitated to the center of the well, whereas erythrocyte-bacteria aggregates precipitated at the periphery of the bottom. The hemagglutination titer was expressed as the reciprocal of the highest dilution of the bacterial suspension providing visible hemagglutination.
Preparation of erythrocyte and bacterial suspensions were the same as for the hemagglutination assay. Fifty μl of histatin peptide solutions were diluted in PBS in a U-bottom microplate, at various two-fold concentrations with 600 nmole/ml being the highest. The bacterial concentration utilized was normally twice the minimal concentration which gave strong hemagglutination. Equal volumes of the bacterial suspension were poured into the wells containing the histatin peptides. Finally, 50 μl of erythrocyte suspension were added in each well. The microplate was slightly shaken and incubated at room temperature for 2 hours. Controls were made by replacement of the peptide dilutions with PBS only. The experiments were conducted at least twice. The lowest histatin peptide concentration without hemagglutination (complete inhibition) was determined upon visual examination. The highest final histatin peptide concentration utilized was 100 nmole/ml.

[2] = test system: Porphyromonas gingivalis strain A7A1-28; experiment: microdilution bacteriostatic assay (P. gingivalis growth inhibition); assay type: cell-based; settings: for P. gingivalis: % increase in time to reach mid logphase growth (0.2 OD): 2 mM dose
Procedure: (a) The bacteria used in one investigation, Porphyromonas gingivalis strain A7A1-28, is a typical key pathogenic organism associated with destructive periodontal diseases. The bacteria were multiply subcultured in Enriched Todd Hewitt broth (ETHB, Difco Lab., Detroit, Mich.). Microorganisms were stored in the same broths containing 20% and 50% glycerol, at -20° C. and -70° C., respectively. These served as stock cultures from which all preparations originated.
Working stock cultures were maintained by weekly transfer to Brain Heart Infusion Anaerobic Sheep Blood Agar plates (BHIA, Becton Dickinson and Co., Cockeysville, Md.), and Trypticase Soy Anaerobic Sheep Blood Agar plates (TSA, Becton Dickinson and Co., Cockeysville, Md.). Plates were incubated for 3 to 4 days under strictly anaerobic conditions. For the bacteriostatic assay, bacteria were collected from plates, inoculated into the aforementioned broth and grown at 37° C., under strictly anaerobic conditions for 24 to 48 hours.
A modification of the typical microdilution assay (Rotilie et al., 1975) for the determination of minimal inhibitory concentration (MIC) of antimicrobial agents was utilized to investigate the bacteriostatic activity of the peptides. A standardized bacterial inoculum (P. gingivalis) was exposed to serially diluted antimicrobial peptides in an enriched broth medium that was suitable for the growth of anaerobic bacteria. The test was adapted for use in the 96-well microtiter plates. […] The modification introduced here was based on the spectrophotometric reading of the microtiter plate after incubation.
Microorganisms from cultures maintained in the aforementioned plates were inoculated into 5 ml of the above-mentioned broths and cultured overnight at 37° C. under strictly anaerobic conditions with continuous agitation on a minishaker (IKA-Labortechnik, Staufen i. Br., Germany). The bacteria were grown until reaching the late log phase and were then suspended in the same broths to an optical density (O.D.) of 0.1 at 560 nm. The peptides were diluted in 0.01M phosphate buffered saline (PBS), pH 7. Forty μl aliquots of peptide dilutions were added in each well of a U-bottom microtiter plate (Costar, Cambridge, Mass.) to give final concentrations of 2000, 1000, 500 and 250 μM. Twenty μl of bacterial inoculum was added to all the wells. Finally, 100 μl of the suitable broth were added to each well. The optical density of the wells of the microtiter plate was determined using a microplate reader set at 550 nm and the plate was then incubated under strictly anaerobic conditions for 24 hours. Controls were made by replacing the peptide dilutions with PBS alone. After the incubation, the mixtures in each well were mixed manually to resuspend sedimented bacteria and the plate was read again. The experiments were conducted twice every time. The biologic activity was calculated according to the formula:
100-[[(Fin ODexp-In ODexp)/(Fin ODctr-In ODctr)]×100]
In addition, the % increase in time to reach midlog phase growth was calculated.
The data presentation represent the means (±SEM) of at least 2 separate experiments.

Substance	bacteria mediated hemagglutination inhibition, in words [1]	Hemagglutination: lowest dose (μM) at which hemagglutination was observed using P. Gingivalis [1]	P. gingivalis growth inhibition, in words [2]	P. gingivalis: % increase in time to reach mid logphase growth (0.2 OD) [2]
AKRHHGYKRKFH [peptide 113]	bacteria mediated hemagglutination inhibition	25 µM	P. gingivalis growth inhibition	34.95%
peptide 117: subpeptide of peptide 113 (SEQ ID NO: 19) (KRHHGYKRKFH)	bacteria mediated hemagglutination inhibition	–	P. gingivalis growth inhibition	–
His 11: histatin 11 (SEQ ID NO: 11), subpeptide of peptide 113 (KRHHGYKR)	bacteria mediated hemagglutination inhibition	100 µM	P. gingivalis growth inhibition	–
KRHHGYKRKF [peptide 129]	bacteria mediated hemagglutination inhibition	50 µM	P. gingivalis growth inhibition	15.4%
AKRHHGYKR [peptide 120]	bacteria mediated hemagglutination inhibition	50 µM	P. gingivalis growth inhibition	–
AKRHHGYKRK [peptide 119]	bacteria mediated hemagglutination inhibition	25 µM	P. gingivalis growth inhibition	–
AKRHHGYKRKF [peptide 118]	bacteria mediated hemagglutination inhibition	6.25 µM	P. gingivalis growth inhibition	–
